Among the data in PMC12881674, “Activation of TRPV3 channels in bladder cancer cells stimulates ATP release” (Molecular Pharmacology, 2025) are EC50 values, retold here.

The test deals with T1, TRPV3 in KU-19-19 cells (Homo sapiens, UniProt Q8NET8).
T1 construct: host or cells: KU-19-19
T1 sequence (Q8NET8 1-790): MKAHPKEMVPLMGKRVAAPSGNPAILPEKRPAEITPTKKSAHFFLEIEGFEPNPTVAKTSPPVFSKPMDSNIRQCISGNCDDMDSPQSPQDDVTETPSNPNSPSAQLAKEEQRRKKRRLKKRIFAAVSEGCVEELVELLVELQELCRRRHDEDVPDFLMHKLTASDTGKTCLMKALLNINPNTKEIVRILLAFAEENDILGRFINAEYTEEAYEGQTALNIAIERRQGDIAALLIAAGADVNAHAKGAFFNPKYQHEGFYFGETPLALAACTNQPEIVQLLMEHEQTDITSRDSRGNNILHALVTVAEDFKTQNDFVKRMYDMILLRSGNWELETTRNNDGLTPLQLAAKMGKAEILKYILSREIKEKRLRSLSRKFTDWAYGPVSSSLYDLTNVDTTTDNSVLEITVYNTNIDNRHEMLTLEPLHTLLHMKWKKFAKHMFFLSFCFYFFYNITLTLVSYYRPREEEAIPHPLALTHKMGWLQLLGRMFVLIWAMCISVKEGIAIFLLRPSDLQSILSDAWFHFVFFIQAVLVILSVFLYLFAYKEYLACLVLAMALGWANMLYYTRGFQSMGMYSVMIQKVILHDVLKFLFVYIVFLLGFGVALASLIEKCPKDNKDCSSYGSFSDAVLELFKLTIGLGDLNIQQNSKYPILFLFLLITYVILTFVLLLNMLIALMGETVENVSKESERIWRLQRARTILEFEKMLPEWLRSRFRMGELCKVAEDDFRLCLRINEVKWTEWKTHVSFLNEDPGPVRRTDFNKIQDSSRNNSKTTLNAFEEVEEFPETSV
Put plainly: calcium assay concentration-response in KU-19-19 cells. It counts as cell-based. To be noted: read-out: EC50 for AV3-1-induced TRPV3 activation in KU-19-19 cells. As to the method:
Supplementation of the cellular cholesterol content in KU-19-19 cells was performed by adding cholesterol-loaded methyl-β-cyclodextrin (MβCD) to the cells. Cholesterol was dissolved in ethanol (20 mg/mL) by heating at 65 °C for 15 minutes. The cholesterol solution was then added dropwise to a 250 mM MβCD solution prepared in phosphate-buffered solution (PBS; Sigma Aldrich) at a 1:4 (v/v) ratio, yielding a stock containing 200 mM MβCD-cholesterol. KU-19-19 cells were incubated for 15 minutes at 37 °C in HBS containing 2.5 mM MβCD-cholesterol. As a control, KU-19-19 cells were incubated in HBS without MβCD-cholesterol supplement under the same conditions.
All fluorometric Ca^2+ assays were performed in HBS buffer at room temperature. […] For the primary compound screening and the generation of concentration-response analyses, a robotic liquid handling station (Freedom Evo 150; Tecan) with a built-in custom-made fluorescence plate imager was used. […] Fluorescence was excited using a 470-nm light-emitting diode, and emitted light was imaged through a 515-nm–long pass filter with a cooled Zyla 5.5 camera (Andor). Fluorescence was recorded and processed under the control of the μ-Manager 2.0 gamma software (https://micro-manager.org.[28]). After recording baseline fluorescence, compounds were dispensed into the wells via the liquid handling device. […]

Like-named read-outs stand apart in the source and are kept apart here.

One may read the EC50 as the concentration giving half of the maximal effect. As to `COC(=O)C12CN(Cc3ccccc3)CC1(C(=O)OC)CN(Cc1ccccc1)C2` (centres unmarked) [AV3-1], the EC50 came out at 19 ± 1.5 µM (cells not supplemented with cholesterol) and 6.3 ± 1.9 µM (cholesterol supplementation (2.5 mM MβCD-cholesterol)).
